Like-named read-outs stand apart in the source and are kept apart here.
Biological target: T1, rNav1.2 sodium channels (Rattus norvegicus, UniProt P04775)
T1 construct: host or cells: HEK-293
Experiment: QPatch automated patch clamp, inhibition of sodium currents evoked by 5 Hz trains at three extracellular pH values
Format: cell-based
Details: for class of pH-dependence pattern (cluster analysis): Ward's method on 18 variables of affinity, reversibility, onset
Procedure: HEK-293 cells stably expressing rNav1.2 sodium channels were obtained from NeuroSearch (Ballerup, Denmark). The cells were grown in Dulbecco's modified Eagle medium supplemented with 10% FBS. Prior to use, the cells were trypsinized and subsequently kept in suspension in the QPatch cell storage facility in CHO-S- SFM-II medium.
Composition of the extracellular solution was: (in mM): 140 NaCl, 3 KCl, 1 CaCl2 1 MgCl2, 0.1 CdCl2, 20 TEA-Cl, 5 HEPES, adjusted to pH 7.3, Osmolality: 320 mOsm. […] Drugs were synthesized in Gedeon Richter Plc. […] The full list of drugs, with their three-letter codes, concentration, as well as their main therapeutic indication and main mechanism of action are shown in Table 1. […] The choice of concentrations used in this study may seem unusually high.
Data were sampled at a frequency of 25 kHz and filtered at 5 kHz. Junction potential was calculated to be −11 mV and was corrected for. […] Cells having membrane resistance < 500 MOhm, series resistance > 9 MOhm, or capacitance > 22 pF were excluded from analysis. The experimental protocol was also identical to the one used in our previous study: sodium channels were activated by 5 Hz trains of 5 depolarizations (−90 to −10 mV) repeated in every 20 s. In this study, however, the same control–drug-application–washout sequence was repeated four times: at neutral, acidic, alkalic, and again neutral pH. The peak amplitudes of sodium currents throughout the whole experiment are shown plotted against time in Figure 1 and Supplementary Figure 1.
Initial analysis, including subtraction of leak and capacitive artifacts, as well as peak detection were done in the QPatch software. […] All experiments were normalized to the amplitude of the current evoked by the first depolarization of the last train under control conditions. […] For all four drug applications in an experiment, apparent affinity, onset and offset time constants as well as reversibility values were calculated. […] (This method is equivalent to applying the Lineweaver-Burk plot method using a single concentration.) Reversibility values were calculated from control (c), inhibited (i), and wash-out (w) amplitudes as follows: Reversibility = (w-i)/(c-i). Reversibility values should not be regarded as experimental platform-independent properties of compounds. […] However, reversibility values are a valuable source of information regarding physicochemical differences between individual drugs, or between effects of the same drug under different extracellular pH conditions. Onset and offset time constants were determined by single exponential fitting to individual experiments. For neutral pH numerical data were given as the average of the data from the first and the last drug applications. Thin black lines on Figure 1 and Supplemental Figure 1 show the average of five fitted exponentials, (not the exponential fitted to the averaged normalized amplitudes). The numerical values of apparent affinity, onset and offset time constants and reversibility are shown in Table 2, and their relative position is illustrated in Figure 2. Affinity and time constant values were logarithmically transformed for statistics, therefore we show their geometric mean. For recovery data no transformation was done, and we show arithmetic mean values. Significance values were calculated using paired, two-tailed Student's t-test based on five pairs of apparent affinity (log transform), time constant (log transform), or reversibility values obtained from five individual experiments. Because of the large number of comparisons in this study, we accepted p < 0.01 as significant. Cluster analysis was done using Ward's minimum variance method, with Euclidean distance measure. Data were normalized by subtracting the mean (after logarithmic transformation in the case of apparent affinity and time constants), and dividing by the standard deviation.

[1] = pH 6.0, concentration (lidocaine 300 μM, memantine 30 μM)
[2] = pH 6.0, single concentration (lidocaine 300 μM, memantine 30 μM), geometric mean of 5, read-out: apparent affinity
[3] = pH 7.3, concentration (lidocaine 300 μM, memantine 30 μM)
[4] = pH 7.3, single concentration (lidocaine 300 μM, memantine 30 μM), geometric mean of 5, read-out: apparent affinity
[5] = pH 8.6, concentration (lidocaine 300 μM, memantine 30 μM)
[6] = pH 8.6, single concentration (lidocaine 300 μM, memantine 30 μM), geometric mean of 5, read-out: apparent affinity
[7] = pH=6.0, cc 300 mM, read-out: Apparent Affinity
[8] = pH=7.3, cc 300 mM, read-out: Apparent Affinity
[9] = pH=8.6, cc 300 mM, read-out: Apparent Affinity

T1 sequence (P04775 whole entry): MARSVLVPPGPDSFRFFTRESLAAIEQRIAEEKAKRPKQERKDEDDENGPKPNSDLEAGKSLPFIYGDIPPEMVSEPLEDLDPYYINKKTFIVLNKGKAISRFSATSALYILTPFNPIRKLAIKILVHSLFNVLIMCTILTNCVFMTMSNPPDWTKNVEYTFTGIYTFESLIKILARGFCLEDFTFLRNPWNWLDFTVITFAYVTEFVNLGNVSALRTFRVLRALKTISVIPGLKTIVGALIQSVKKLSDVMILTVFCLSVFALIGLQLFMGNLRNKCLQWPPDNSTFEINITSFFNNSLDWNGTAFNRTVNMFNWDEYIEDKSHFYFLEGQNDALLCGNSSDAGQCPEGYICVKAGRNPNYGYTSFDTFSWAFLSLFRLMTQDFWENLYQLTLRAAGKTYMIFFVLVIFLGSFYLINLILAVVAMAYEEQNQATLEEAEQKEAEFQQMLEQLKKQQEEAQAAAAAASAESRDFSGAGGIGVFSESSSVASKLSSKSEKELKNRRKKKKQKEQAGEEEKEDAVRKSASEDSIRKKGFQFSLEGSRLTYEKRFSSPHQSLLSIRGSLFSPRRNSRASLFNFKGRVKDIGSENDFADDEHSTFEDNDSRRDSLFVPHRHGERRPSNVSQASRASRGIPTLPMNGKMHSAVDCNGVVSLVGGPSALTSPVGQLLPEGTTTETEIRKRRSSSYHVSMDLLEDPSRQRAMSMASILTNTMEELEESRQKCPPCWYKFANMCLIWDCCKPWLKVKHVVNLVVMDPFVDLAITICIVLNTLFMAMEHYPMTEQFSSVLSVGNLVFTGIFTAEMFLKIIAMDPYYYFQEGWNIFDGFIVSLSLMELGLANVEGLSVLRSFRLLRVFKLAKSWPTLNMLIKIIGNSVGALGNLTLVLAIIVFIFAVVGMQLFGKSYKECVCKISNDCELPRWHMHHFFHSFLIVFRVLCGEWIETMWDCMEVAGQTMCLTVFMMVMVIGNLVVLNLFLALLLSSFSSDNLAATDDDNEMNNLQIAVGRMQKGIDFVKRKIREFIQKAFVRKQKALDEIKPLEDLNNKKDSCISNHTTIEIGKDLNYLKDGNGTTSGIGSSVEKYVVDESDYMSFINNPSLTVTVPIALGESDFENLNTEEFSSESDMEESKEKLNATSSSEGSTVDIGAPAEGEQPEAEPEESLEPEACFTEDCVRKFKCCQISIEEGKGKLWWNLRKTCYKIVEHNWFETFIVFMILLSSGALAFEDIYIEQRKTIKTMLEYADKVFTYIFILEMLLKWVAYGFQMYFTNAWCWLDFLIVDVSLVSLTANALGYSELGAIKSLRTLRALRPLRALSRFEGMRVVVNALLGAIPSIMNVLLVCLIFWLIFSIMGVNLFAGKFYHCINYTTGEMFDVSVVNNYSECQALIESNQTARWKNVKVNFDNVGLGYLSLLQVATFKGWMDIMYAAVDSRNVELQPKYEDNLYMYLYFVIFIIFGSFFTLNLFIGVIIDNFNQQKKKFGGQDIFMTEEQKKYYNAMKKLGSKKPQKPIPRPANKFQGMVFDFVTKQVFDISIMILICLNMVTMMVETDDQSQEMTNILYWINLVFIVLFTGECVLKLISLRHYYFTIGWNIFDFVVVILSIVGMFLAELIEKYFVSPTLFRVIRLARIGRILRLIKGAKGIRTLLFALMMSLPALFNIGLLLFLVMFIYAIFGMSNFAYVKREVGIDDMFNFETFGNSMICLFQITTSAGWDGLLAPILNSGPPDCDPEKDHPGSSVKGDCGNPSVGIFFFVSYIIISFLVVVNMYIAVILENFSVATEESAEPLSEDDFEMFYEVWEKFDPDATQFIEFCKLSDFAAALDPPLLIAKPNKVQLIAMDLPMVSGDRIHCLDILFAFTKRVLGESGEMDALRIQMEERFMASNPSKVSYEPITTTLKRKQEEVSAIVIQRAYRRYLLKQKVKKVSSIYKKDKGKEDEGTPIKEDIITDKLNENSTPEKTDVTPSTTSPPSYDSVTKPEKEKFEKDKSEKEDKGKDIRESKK

Row | Compound | class of pH-dependence pattern (cluster analysis) | τoffset [1] [s] | τonset [1] [s] | Kd [2] [µM] | τoffset [3] [s] | τonset [3] [s] | Kd [4] [µM] | τoffset [5] [s] | τonset [5] [s] | Kd [6] [µM] | Reversibility (pH=6.0, cc 300 mM) | Kd [7] [µM] | Kd [8] [µM] | Kd [9] [µM] | also measured
1 | Nc1nnc(-c2cccc(Cl)c2Cl)c(N)n1 [lamotrigine] | Class A | 14.40 | 11.40 | 329 | 13.40 | 13.00 | 622 | 17.80 | 16.00 | 821 | 0.74 | 329 | 622 | 821 | Ratio Reversibility (pH 6.0/7.3, cc 300 mM): 0.765; Ratio Tau Offset (pH 6.0/7.3, cc 300 mM): 1.075; Ratio Tau Onset (pH 6.0/7.3, cc 300 mM): 0.877; log Ratio App Aff (pH 6.0/7.3, cc 300 mM): -0.277; Ratio Reversibility (pH 6.0/8.6, cc 300 mM): 0.930; Ratio Tau Offset (pH 6.0/8.6, cc 300 mM): 0.809; Ratio Tau Onset (pH 6.0/8.6, cc 300 mM): 0.713; log Ratio App Aff (pH 6.0/8.6, cc 300 mM): -0.398; Ratio Reversibility (pH 7.3/8.6, cc 300 mM): 1.215; Ratio Tau Offset (pH 7.3/8.6, cc 300 mM): 0.753; Ratio Tau Onset (pH 7.3/8.6, cc 300 mM): 0.813; log Ratio App Aff (pH 7.3/8.6, cc 300 mM): -0.121; Reversibility (pH=7.3, cc 300 mM): 0.96; Reversibility (pH=8.6, cc 300 mM): 0.79
2 | CCN(CC)CC(=O)Nc1c(C)cccc1C [lidocaine] | Class A | 8.49 | 6.17 | 917 | 7.59 | 5.14 | 806 | 5.98 | 4.86 | 515 | 0.66 | 917 | 806 | 515 | τonset (pH 6.0, higher concentration: lidocaine 1000 μM, memantine 100 μM): 5.20 s; Kd (pH 6.0, higher concentration: lidocaine 1000 μM, memantine 100 μM, read-out: apparent affinity): 1670 µM; τonset (pH 7.3, higher concentration: lidocaine 1000 μM, memantine 100 μM): 5.20 s; Kd (pH 7.3, higher concentration: lidocaine 1000 μM, memantine 100 μM, read-out: apparent affinity): 1030 µM; τonset (pH 8.6, higher concentration: lidocaine 1000 μM, memantine 100 μM): 5.60 s; Kd (pH 8.6, higher concentration: lidocaine 1000 μM, memantine 100 μM, read-out: apparent affinity): 677 µM; Kd (pH=6.0, cc 1000 mM, read-out: Apparent Affinity): 1670 µM; Kd (pH=7.3, cc 1000 mM, read-out: Apparent Affinity): 1030 µM; Kd (pH=8.6, cc 1000 mM, read-out: Apparent Affinity): 677 µM
